US7285556B2, “Thienopyrimidine-based inhibitors of the src family” (Board of Regents, The University of Texas Systems, priority 2000, dated 2007)
Where two headings read alike, the source gives them in different places.

Tests used:
Assay type in all cases: biochemical
Csk = target: T1, Csk (Homo sapiens, UniProt P41240); assay: Csk tyrosine kinase activity, poly E4Y and 32P-ATP
T1 construct: GST (glutathione-S-transferase) (N); made in house; host or cells: E. coli (pGEX vector)
Procedure, shortened: (§1)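 Recombinant GST-Csk (E. coli) or baculovirus-expressed human Src assayed on poly E4Y in 0.15 M EPPS-NaOH pH 8.0, 6 mM MgCl2, 0.2 mM γ32P-ATP, 10% glycerol, 0.1% Triton X-100. Read-out is 32P incorporation into poly E4Y; for ATP variation (0–250 μM), poly E4Y held at 150 μg/ml.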

FGF receptor (FGFr) = FGF receptor (FGFr) (Homo sapiens, UniProt P11362); assay: FGFr tyrosine kinase activity, poly E4Y and 32P-ATP
Method: Recombinant human Src was expressed using the baculovirus-insect cell system and purified as published (Budde et al., 1993 and 2000). Recombinant Csk and the FGF receptor (FGFr) were expressed as glutathione-S-transferase fusion proteins using the pGEX expression vector and E. coli, and purified as described (Sun & Budde, 1995). The tyrosine kinase activity of Src, Csk and FGFr was determined using poly E4Y and ^32P-ATP. Briefly, enzymes were assayed in a reaction mixture consisting of 0.15 M EPPS-NaOH (pH 8.0) with 6 mM MgCl2, 0.2 mM γ^32P-ATP (0.2-0.4 mCi/μmol), 10% glycerol, 0.1% Triton X-100, and poly E4Y. Poly E4Y is a synthetic peptide whose phosphorylation is measured in this assay by the addition of the radioactively labeled phosphate from the ATP (Budde et al., 1995). […] When ATP was varied (0, 50, 100 and 250 μM), poly E4Y was kept constant at 150 μg/ml. […] From this screening, the thienopyrimidine-based scaffold was identified as one of the chemical structures to pursue. […] These analogues were screened against Src, Csk and FGFr (Table 2, Table 3, and Table 4).

Recombinant human Src = target: T2, Recombinant human Src (Homo sapiens, UniProt P12931); assay: Src tyrosine kinase activity, poly E4Y and 32P-ATP
T2 construct: made in house; host or cells: baculovirus-insect cell system
Procedure, shortened: as §1

N12 neuronal Src variant = target: T3, N12 neuronal Src variant (Homo sapiens, UniProt P12931); assay: Testing against neuronal Src variant N12; details: Table 5
T3 construct: made in house
Method: (§2) The tyrosine kinase activity of Src, Csk and FGFr was determined using poly E4Y and ^32P-ATP. Briefly, enzymes were assayed in a reaction mixture consisting of 0.15 M EPPS-NaOH (pH 8.0) with 6 mM MgCl2, 0.2 mM γ^32P-ATP (0.2-0.4 mCi/μmol), 10% glycerol, 0.1% Triton X-100, and poly E4Y. Poly E4Y is a synthetic peptide whose phosphorylation is measured in this assay by the addition of the radioactively labeled phosphate from the ATP (Budde et al., 1995). […] When ATP was varied (0, 50, 100 and 250 μM), poly E4Y was kept constant at 150 μg/ml.
(§3) Thienopyrimidine-based compounds were also tested against neuronal Src variants (Table 5).

N23 neuronal Src variant = target: T4, N23 neuronal Src variant (Homo sapiens, UniProt P12931); assay: Testing against neuronal Src variant N23; details: Table 5
T4 construct: made in house
Method: as §2, §3

[1] = screening assay, 50 μg/ml poly E4Y, 0.2 mM 32P-ATP
[2] = Table 4, NI = no inhibition upto 50 ug/mL
[3] = Table 2, read-out: Src IC50 (especially good inhibitors of Src)
[4] = Table 5, N6 = Src, read-out: N6(Src) IC50
[5] = read-out: IC50 (preferred compounds for treatment of Src family-related disease)

Chain of FGF receptor (FGFr) (P11362 398-822): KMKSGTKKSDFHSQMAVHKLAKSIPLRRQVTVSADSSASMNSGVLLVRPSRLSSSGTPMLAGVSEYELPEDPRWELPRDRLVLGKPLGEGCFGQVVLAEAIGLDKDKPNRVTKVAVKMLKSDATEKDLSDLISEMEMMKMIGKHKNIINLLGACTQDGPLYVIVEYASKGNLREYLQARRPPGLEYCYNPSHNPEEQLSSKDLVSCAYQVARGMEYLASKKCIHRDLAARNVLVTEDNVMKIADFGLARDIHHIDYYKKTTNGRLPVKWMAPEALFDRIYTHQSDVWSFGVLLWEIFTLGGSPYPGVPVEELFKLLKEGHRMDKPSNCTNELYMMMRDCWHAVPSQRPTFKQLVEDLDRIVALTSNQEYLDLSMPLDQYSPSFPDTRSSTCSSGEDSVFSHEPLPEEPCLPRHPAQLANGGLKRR

IC50 (Recombinant human Src; [3]) [nM] | IC50 (Recombinant human Src; [5]) [nM] | IC50 (Csk; [1]) [nM] | Compound | further results
 |  |  | Cc1csc2c(NN=Cc3ccc(C(F)(F)F)cc3)ncnc12 [Compound 9, 4-Trifluoromethylbenzaldehyde(7-methylthieno[3,2-d]pyrimidin-4-yl)hydrazone] | Csk IC50 (Csk; [1]): NI (NI = no inhibition up to 50 ug/mL); FGFr IC50 (FGF receptor (FGFr); [1]): NI (NI = no inhibition up to 50 ug/mL)
 |  |  | C(=NNc1ncnc2cc(-c3ccsc3)sc12)c1cccnc1 [Compound 223, 3-Pyridinecarboxaldehyde(6-(3-thienyl)thieno[3,2-d]pyrimidin-4-yl)hydrazone] | Csk IC50 (Csk; [1]): NI (NI = no inhibition up to 50 ug/mL); FGFr IC50 (FGF receptor (FGFr); [1]): NI (NI = no inhibition up to 50 ug/mL)
 |  |  | 1-Hydroxy-1-methyl-1,1-di-[4-carboxybenzaldehyde(7-methylthieno[3,2-d]pyrimidin-4-yl)hydrazone]methane [Compound 500] | IC50 (Recombinant human Src; Table 4, read-out: Src IC50): 5300 nM; IC50 (Csk; [2]): 57000 nM; FGFr IC50 (FGF receptor (FGFr); [2]): NI (NI = no inhibition upto 50 ug/mL)
 |  |  | CCO.Cc1csc2c(NN=Cc3cccnc3)ncnc12.Cc1csc2c(NN=Cc3cccnc3)ncnc12 [Compound 499] | IC50 (Recombinant human Src; Table 4, read-out: Src IC50): 8600 nM; Csk IC50 (Csk; [2]): NI (NI = no inhibition upto 50 ug/mL); FGFr IC50 (FGF receptor (FGFr); [2]): NI (NI = no inhibition upto 50 ug/mL)
≤ 2000 | < 2000 |  | COc1ccc(C=NNc2ncnc3c(C)csc23)cc1O [Compound 51, 3-Hydroxy-4-methoxybenzaldehyde(7-methylthieno[3,2-d]pyrimidin-4-yl)hydrazone] | IC50 (Recombinant human Src; [4]): 510 nM; IC50 (N12 neuronal Src variant): 1750 nM; IC50 (N23 neuronal Src variant): 510 nM
 |  |  | Cc1csc2c(NN=Cc3cccc(Br)c3)ncnc12 [Compound 57, 3-Bromobenzaldehyde(7-methylthieno[3,2-d]pyrimidin-4-yl)hydrazone] | Csk IC50 (Csk; [1]): NI (NI = no inhibition up to 50 ug/mL); FGFr IC50 (FGF receptor (FGFr); [1]): NI (NI = no inhibition up to 50 ug/mL)
 |  |  | 1-Hydroxy-1-methyl-1,1-di-[3-hydroxy-4-methoxybenzaldehyde(7-methylthieno[3,2-d]pyrimidin-4-yl)hydrazone]methane [Compound 502] | IC50 (Recombinant human Src; Table 4, read-out: Src IC50): 8700 nM; Csk IC50 (Csk; [2]): NI (NI = no inhibition upto 50 ug/mL); FGFr IC50 (FGF receptor (FGFr); [2]): NI (NI = no inhibition upto 50 ug/mL)
≤ 2000 | < 2000 | > 151000 | C(=NNc1ncnc2cc(-c3ccccc3)sc12)c1cccnc1 [Compound 199, 3-Pyridinecarboxaldehyde(6-phenylthieno[3,2-d]pyrimidin-4-yl)hydrazone] | IC50 (Recombinant human Src; [4]): 150 nM; IC50 (N12 neuronal Src variant): 230 nM; IC50 (N23 neuronal Src variant): 120 nM
≤ 2000 | < 2000 | > 119000 | COc1cccc(-c2sc3c(NN=Cc4ccc(OC)c(O)c4)ncnc3c2C)c1 [Compound 429, 3-Hydroxy-4-methoxybenzaldehyde(6-(3-methoxyphenyl)-7-methylthieno[3,2-d]pyrimidin-4-yl)hydrazone] | 
≤ 2000 | < 2000 | > 176000 | Cc1csc2c(NN=Cc3cccc(O)c3)ncnc12 [Compound 32, 3-Hydroxybenzaldehyde(7-methylthieno[3,2-d]pyrimidin-4-yl)hydrazone] | 
≤ 2000 | < 2000 | > 161000 | C(=NNc1ncnc2c1sc1ncccc12)c1cccs1 [Compound 244, 2-Thiophenecarboxaldehyde(pyrido[3′,2′:4,5]thieno[3,2-d]pyrimidin-4-yl)hydrazone] | 
≤ 2000 | < 2000 | > 122000 | O=C(O)c1ccc(C=NNc2ncnc3cc(-c4ccc(Cl)cc4)sc23)cc1 [Compound 309, 4-Carboxybenzaldehyde(6-(4-chlorophenyl)thieno[3,2-d]pyrimidin-4-yl)hydrazone] | 
≤ 2000 | < 2000 | > 194000 | Cc1csc2c(NN=Cc3ccc[nH]3)ncnc12 [Compound 30, 1H-Pyrrole-2-carboxaldehyde(7-methylthieno[3,2-d]pyrimidin-4-yl)hydrazone] | 
≤ 2000 | < 2000 | > 122000 | CS(=O)(=O)c1ccc(-c2cc3ncnc(NN=Cc4cccnc4)c3s2)cc1 [Compound 290, 3-Pyridinecarboxaldehyde(6-(4-methanesulphonylphenyl)thieno-[3,2-d]pyrimidin-4-yl)hydrazone] | 
 |  |  | CCO.Cc1csc2c(NN=Cc3cccs3)ncnc12.Cc1csc2c(NN=Cc3cccs3)ncnc12 [Compound 501] | IC50 (Recombinant human Src; Table 4, read-out: Src IC50): 10700 nM; Csk IC50 (Csk; [2]): NI (NI = no inhibition upto 50 ug/mL); FGFr IC50 (FGF receptor (FGFr); [2]): NI (NI = no inhibition upto 50 ug/mL)
 |  | > 160000 | Cc1csc2c(NN=Cc3ccc([N+](=O)[O-])cc3)ncnc12 [Compound 24] | IC50 (Recombinant human Src; screening assay, 50 μg/ml poly E4Y, 0.2 mM 32P-ATP, read-out: Src IC50): > 160000 nM
≤ 2000 | < 2000 | > 168000 | COc1ccc(C=NNc2ncnc3c(C)csc23)cc1 [Compound 14, 4-Methoxybenzaldehyde(7-methylthieno[3,2-d]pyrimidin-4-yl)hydrazone] | 
≤ 2000 | < 2000 | > 165000 | Cc1csc2c(NN=Cc3cccc(Cl)c3)ncnc12 [Compound 19, 3-Chlorobenzaldehyde(7-methylthieno[3,2-d]pyrimidin-4-yl)hydrazone] | 
≤ 2000 | < 2000 | > 150000 | Brc1csc2c(NN=Cc3cccnc3)ncnc12 [Compound 180, 3-Pyridinecarboxaldehyde(7-bromothieno[3,2-d]pyrimidin-4-yl)hydrazone] | 
≤ 2000 | < 2000 | > 186000 | Cc1csc2c(NN=Cc3ccccc3)ncnc12 [Compound 7, Benzaldehyde(7-methylthieno[3,2-d]pyrimidin-4-yl)hydrazone] | 
≤ 2000 | < 2000 | > 143000 | Fc1ccc(-c2cc3ncnc(NN=Cc4cccnc4)c3s2)cc1 [Compound 278, 3-Pyridinecarboxaldehyde(6-(4-fluorophenyl)thieno[3,2-d]pyrimidin-4-yl)hydrazone] | 
≤ 2000 | < 2000 | > 135000 | Clc1ccccc1-c1cc2ncnc(NN=Cc3cccs3)c2s1 [Compound 320, 2-Thiophenecarboxaldehyde(6-(2-chlorophenyl)thieno[3,2-d]pyrimidin-4-yl)hydrazone] | 
≤ 2000 | < 2000 | > 160000 | CCOc1ccc(C=NNc2ncnc3c(C)csc23)cc1 [Compound 48, 4-Ethoxybenzaldehyde(7-methylthieno[3,2-d]pyrimidin-4-yl)hydrazone] | 
≤ 2000 | < 2000 | > 142000 | Cc1c(-c2ccsc2)sc2c(NN=Cc3cccnc3)ncnc12 [Compound 379, 3-Pyridinecarboxaldehyde(7-methyl-6-(3-thienyl)thieno[3,2-d]pyrimidin-4-yl)hydrazone] | 
≤ 2000 | < 2000 | > 151000 | C(=NNc1ncnc2cc(-c3ccccc3)sc12)c1ccncc1 [Compound 252, 4-Pyridinecarboxaldehyde(6-phenylthieno[3,2-d]pyrimidin-4-yl)hydrazone] | 
≤ 2000 | < 2000 | > 133000 | COc1ccc(-c2sc3c(NN=Cc4cccnc4)ncnc3c2C)cc1 [Compound 422, 3-Pyridinecarboxaldehyde(6-(4-methoxyphenyl)-7-methylthieno[3,2-d]pyrimidin-4-yl)hydrazone] | 
≤ 2000 | < 2000 | > 176000 | CCc1csc2c(NN=Cc3cccnc3)ncnc12 [Compound 257, 3-Pyridinecarboxaldehyde(7-ethylthieno[3,2-d]pyrimidin-4-yl)hydrazone] | 

Compound | IC50 (Recombinant human Src; [3]) [nM] | IC50 (Recombinant human Src; [5]) [nM] | IC50 (Csk; [1]) [nM] | further results
Cc1csc2c(NN=Cc3cccs3)ncnc12 [Compound 29, 2-Thiophenecarboxaldehyde(7-methylthieno[3,2-d]pyrimidin-4-yl)hydrazone] | ≤ 2000 | < 2000 | > 182000 | IC50 (Recombinant human Src; [4]): 950 nM; IC50 (N12 neuronal Src variant): 1170 nM; IC50 (N23 neuronal Src variant): 840 nM
